Assay results reported in the supplement of paper PMC10920090.

What was measured:
MDA-MB-231 [1] = test: drug sensitivity score (DSS), cytotoxicity CellTox Green; higher = more cytotoxic; extreme values may be limits of the assay; conditions: 72 h
MDA-MB-231 [2] = test: drug sensitivity score (DSS), cell viability CellTiter-Glo; higher = more sensitive; extreme values may be limits of the assay; conditions: 72 h
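For drug sensitivity score (DSS), cytotoxicity CellTox Green in this document: DSS summarises each dose–response curve by combining IC50, EC50, maximal inhibition and efficacy across drug concentrations.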

Row | Compound | drug sensitivity score (MDA-MB-231 [1]; shRNA: shPPFIA1_1) [DSS] | drug sensitivity score (MDA-MB-231 [1]; shRNA: shScramble) [DSS] | drug sensitivity score (MDA-MB-231 [2]; shRNA: shPPFIA1_1) [DSS] | drug sensitivity score (MDA-MB-231 [2]; shRNA: shScramble) [DSS]
1 | CC(C)[C@H](C(=O)Nc1ccc(C(=O)NO)cc1)c1ccccc1 [AR-42] | 12.6 | 7.5 | 9.3 | 9.5
2 | NCC(=O)Nc1ccc(-n2nc(C(F)(F)F)cc2-c2ccc3c(ccc4ccccc43)c2)cc1 | 8 | 7.3 | 5 | 8.7
3 | O=c1ncn2nc(Sc3ccc(F)cc3F)ccc2c1-c1c(Cl)cccc1Cl [VX 745] | 0 | 0 | 0 | 0
4 | CC(C)c1cc(-c2n[nH]c(=O)n2-c2ccc3c(ccn3C)c2)c(O)cc1O [Ganetespib] | 1.2 | 3 | 9.9 | 11.5
5 | CNNCc1ccc(C(=O)NC(C)C)cc1 [Procarbazine] | 0 | 0 | 0 | 0
6 | CC1(C)NC(=O)N(c2ccc([N+](=O)[O-])c(C(F)(F)F)c2)C1=O [Nilutamide] | 0 | 0 | 0 | 0
7 | C=C1C[C@@H]2[C@H](CC[C@]3(C)C(=O)CC[C@@H]23)[C@@]2(C)C=CC(=O)C=C12 [Exemestane] | 0 | 0 | 0 | 1.4
8 | Nc1ccn([C@@H]2O[C@H](CO)[C@@H](O)C2(F)F)c(=O)n1 [Gemcitabine] | 0.3 | 0 | 1.3 | 8.6
9 | CS(=O)(=O)c1ccc(C2=C(c3ccccc3)C(=O)OC2)cc1 [Rofecoxib] | 0 | 0 | 0 | 0
10 | CN1CCN(C2CCN(C(=O)Nc3cc(Oc4ccc(NC(=O)C5(C(=O)Nc6ccc(F)cc6)CC5)c(F)c4)ccn3)CC2)CC1 [Golvatinib] | 0 | 0 | 0.2 | 2
11 | O=C1NC(=O)[C@@H](c2cn3c4c(cccc24)CCC3)[C@@H]1c1c[nH]c2ccccc12 [Tivantinib] | 1.7 | 0.5 | 4.8 | 3.8
12 | CCc1c2c(nc3ccc(O)cc13)-c1cc3c(c(=O)n1C2)COC(=O)[C@]3(O)CC [SN-38] | 14.9 | 2 | 0.2 | 7.6
13 | Cc1ccc(NC(=O)c2ccc(CN3CC[C@H](N(C)C)C3)c(C(F)(F)F)c2)cc1Nc1nccc(-c2cncnc2)n1 [Bafetinib] | 0.6 | 0.5 | 0 | 4.3
14 | CNC(=O)c1nn(C)c2c1C(C)(C)Cc1cnc(Nc3ccc(N4CCN(C)CC4)cc3)nc1-2 [Milciclib] | 0.3 | 0 | 0.9 | 5.1
15 | COc1cccc2c1C(=O)c1c(O)c3c(c(O)c1C2=O)C[C@@](O)(C(C)=O)C[C@@H]3O[C@H]1C[C@H](N)[C@H](O)[C@H](C)O1 [Daunorubicin] | 0 | 0 | 2.8 | 7.5
16 | O=C(O)CCCCC(CCSCc1ccccc1)SCc1ccccc1 (stereo unspecified) [CPI-613] | 0 | 0 | 0 | 0
17 | CC/C(=C(\c1ccccc1)c1ccc(OCCN(C)C)cc1)c1ccccc1 [Tamoxifen] | 6.3 | 1.8 | 1.8 | 1
18 | O=C1CCC(N2C(=O)c3ccccc3C2=O)C(=O)N1 (stereo unspecified) [Thalidomide] | 0 | 0 | 0 | 0
19 | Cc1nc(N)sc1-c1ccnc(Nc2ccc(N3CCOCC3)cc2)n1 [CYC-116] | 0 | 0 | 0.2 | 4.8
20 | O=C(Nc1cccc(Cl)c1)Nc1ncc(CCNc2ncnc3ccsc23)s1 [SNS-314] | 0 | 0 | 0 | 0
21 | Cc1ccc(F)c(NC(=O)Nc2ccc(-c3cccc4[nH]nc(N)c34)cc2)c1 [Linifanib] | 0 | 0 | 0 | 0
22 | O=P1(NCCCl)OCCCN1CCCl (stereo unspecified) [Ifosfamide] | 0 | 0 | 0 | 0

Row | Compound | drug sensitivity score (MDA-MB-231 [1]; shRNA: shPPFIA1_1) [DSS] | drug sensitivity score (MDA-MB-231 [1]; shRNA: shScramble) [DSS] | drug sensitivity score (MDA-MB-231 [2]; shRNA: shPPFIA1_1) [DSS] | drug sensitivity score (MDA-MB-231 [2]; shRNA: shScramble) [DSS]
23 | Cc1cc2c(F)c(Oc3ncnn4cc(OC[C@@H](C)O)c(C)c34)ccc2[nH]1 [Brivanib] | 0 | 0 | 0 | 0
24 | COc1cc(C(=O)O)ccc1NC(=O)[C@@H]1N[C@@H](CC(C)(C)C)[C@](C#N)(c2ccc(Cl)cc2F)[C@H]1c1cccc(Cl)c1F [Idasanutlin] | 2.6 | 0.6 | 0 | 0
25 | CC(C)(C)C[C@@H]1N[C@@H](C(=O)N[C@H]2CC[C@H](O)CC2)[C@H](c2cccc(Cl)c2F)[C@]12C(=O)Nc1cc(Cl)ccc12 | 0 | 0.7 | 0 | 0
26 | Cc1c(NC(=O)OC[C@@H]2COCCN2)cn2ncnc(Nc3ccc4c(cnn4Cc4cccc(F)c4)c3)c12 | 0 | 0 | 1.2 | 2.4
27 | CC/C(=C(\c1ccc(O)cc1)c1ccc(OCCN(C)C)cc1)c1ccccc1 [4-hydroxytamoxifen] | 2.2 | 3.3 | 2.7 | 4.8
28 | C[C@H]1C[C@@H]2[C@H]([C@@H](O)C[C@@]3(C)[C@H]2CC[C@]3(O)C(=O)CO)[C@@]2(C)C=CC(=O)C=C12 [Methylprednisolone] | 0 | 0 | 0 | 0
29 | Cn1c(=O)c(F)c(Nc2ccc(I)cc2F)c2c(=O)n(C[C@@H](O)CO)cnc21 [TAK-733] | 6.9 | 8.8 | 4.8 | 12.8
30 | CN(c1ccccc1CNc1nc(Nc2ccc3c(c2)CC(=O)N3)ncc1C(F)(F)F)S(C)(=O)=O | 4.1 | 4 | 2.3 | 5.3
31 | CC[C@H](CO)Nc1nc(NCc2ccccc2)c2ncn(C(C)C)c2n1 [Seliciclib] | 0 | 0 | 0 | 0
32 | COC1=CC(c2cc3ccccc3[nH]2)=N/C1=C\c1[nH]c(C)cc1C [Obatoclax] | 0 | 0 | 0 | 0
33 | C[C@@H](Oc1ccc2[nH]nc(/C=C/c3cnn(CCO)c3)c2c1)c1c(Cl)cncc1Cl | 0 | 0 | 0 | 4.8
34 | CC(C)N(CCCNC(=O)Nc1ccc(C(C)(C)C)cc1)C[C@H]1O[C@@H](n2cc(Br)c3c(N)ncnc32)[C@H](O)[C@@H]1O [SGC0946] | 5.5 | 0.6 | 5 | 1.5
35 | Cc1ccc(NC(=O)c2ccc(CN3CCN(C)CC3)cc2)cc1Nc1nc(-c2cccnc2)cs1 [Masitinib] | 0.2 | 0.1 | 0.2 | 2.9
36 | Cc1nc(C(=O)NCC(=O)O)c(O)c2ccc(Oc3ccccc3)cc12 [FG-4592] | 0 | 0 | 2.2 | 2.9
37 | O=C(Nc1ccncc1)C(=O)c1cn(Cc2ccc(Cl)cc2)c2ccccc12 [Indibulin] | 2.3 | 0 | 0 | 3.1
38 | C[C@@H]1C[C@H]2O[C@@H]2/C=C\C=C\C(=O)Cc2c(Cl)c(O)cc(O)c2C(=O)O1 [Radicicol] | 0 | 1.9 | 2 | 6.4
39 | COC(=O)N[C@@H](C)CNc1nccc(-c2cn(C(C)C)nc2-c2cc(Cl)cc(NS(C)(=O)=O)c2F)n1 [Encorafenib] | 0 | 0 | 0 | 1.3
40 | O=C(Nc1cccc(Nc2ncc(Br)c(NCCc3cnc[nH]3)n2)c1)N1CCCC1 [BX-912] | 1.8 | 3.1 | 3.5 | 5.7
41 | C1=N/C2=N/c3ccc(OCCN4CCCC4)c(c3)COC/C=C/COCc3cccc(c3)C(=C1)N2 [Pacritinib] | 1.6 | 0.6 | 2.4 | 6.2
42 | CN1CCC(CNc2ccc3ncc(-c4cccc(OC(F)(F)F)c4)n3n2)CC1 [SGI-1776] | 4.9 | 4.7 | 9 | 9
43 | Cn1cc(-c2cnn3c(N)c(Br)c([C@@H]4CCCNC4)nc23)cn1 [MK-8776] | 0 | 0 | 0 | 2.9
44 | COc1cc2nccc(Oc3ccc(NC(=O)NC4CC4)c(Cl)c3)c2cc1C(N)=O [Lenvatinib] | 0 | 0 | 0 | 0

Row | Compound | drug sensitivity score (MDA-MB-231 [1]; shRNA: shPPFIA1_1) [DSS] | drug sensitivity score (MDA-MB-231 [1]; shRNA: shScramble) [DSS] | drug sensitivity score (MDA-MB-231 [2]; shRNA: shPPFIA1_1) [DSS] | drug sensitivity score (MDA-MB-231 [2]; shRNA: shScramble) [DSS]
45 | Cc1nn(C)c(COc2ccc(N3CCN(S(=O)(=O)N(C)C)CC3)cc2)c1-c1cccc2c(CCCOc3cccc4ccccc34)c(C(=O)O)n(CCN3CCOCC3)c12 | 2.4 | 7.1 | 13.3 | 4.2
46 | COc1cc2c(cc1-c1c(C)noc1C)ncc1[nH]c(=O)n([C@H](C)c3ccccn3)c12 [I-BET151] | 0 | 0 | 0 | 6.1
47 | Cc1c(CN2CCN(C(=O)[C@H](C)O)CC2)sc2c(N3CCOCC3)nc(-c3cnc(N)nc3)nc12 [Apitolisib] | 0 | 0 | 0 | 5.6
48 | CCc1c2c(nc3ccc(OC(=O)N4CCC(N5CCCCC5)CC4)cc13)-c1cc3c(c(=O)n1C2)COC(=O)[C@]3(O)CC [Irinotecan] | 0 | 0 | 0 | 0.3
49 | CNC(=O)CN1CCC(Oc2cc3c(Nc4cccc(Cl)c4F)ncnc3cc2OC)CC1 [Sapitinib] | 0 | 0 | 0 | 8.5
50 | Oc1c2ccccc2c2c3c(cccc13)N=N2 | 0 | 0 | 0 | 0.5
51 | Cn1cc(C2=C(c3cn(C4CCN(Cc5ccccn5)CC4)c4ccccc34)C(=O)NC2=O)c2ccccc21 [Enzastaurin] | 0 | 0 | 5.6 | 2.8
52 | CO[C@@H]1[C@H](N(C)C(=O)c2ccccc2)C[C@H]2O[C@]1(C)n1c3ccccc3c3c4c(c5c6ccccc6n2c5c31)C(=O)NC4 [Midostaurin] | 0 | 0.1 | 0 | 3.5
53 | Nc1ncnc2c1nc(Cl)n2[C@@H]1O[C@H](CO)[C@@H](O)[C@H]1O [8-chloro-adenosine] | 0.9 | 0 | 1.3 | 10.6
54 | CN(Cc1cnc2nc(N)nc(N)c2n1)c1ccc(C(=O)N[C@@H](CCC(=O)O)C(=O)O)cc1 [Methotrexate] | 0 | 0 | 2.8 | 4
55 | Cc1cnc(NC(=O)Nc2cc(Br)c(C)cc2OC[C@@H]2CNCCO2)cn1 [Rabusertib] | 0 | 0 | 5.3 | 2
56 | Nc1ccccc1NC(=O)c1ccc(CNC(=O)OCc2cccnc2)cc1 [Entinostat] | 3.9 | 0.2 | 0.3 | 4.5
57 | CS(=O)(=O)N1CCN(Cc2cc3nc(-c4cccc5[nH]ncc45)nc(N4CCOCC4)c3s2)CC1 [Pictilisib] | 0 | 0 | 0 | 2.9
58 | CC1(C)CCC(CN2CCN(c3ccc(C(=O)NS(=O)(=O)c4ccc(NCC5CCOCC5)c([N+](=O)[O-])c4)c(Oc4cnc5[nH]ccc5c4)c3)CC2)=C(c2ccc(Cl)cc2)C1 [Venetoclax] | 0 | 0 | 0 | 0
59 | O=C(NC1CCNCC1)c1n[nH]cc1NC(=O)c1c(Cl)cccc1Cl [AT7519] | 8.6 | 5.3 | 5.6 | 12.7
60 | COc1cc(Nc2ncc(F)c(Nc3ccc4c(n3)NC(=O)C(C)(C)O4)n2)cc(OC)c1OC [Tamatinib] | 0.2 | 0 | 0 | 1.8
61 | COCC(=O)NC/C=C/c1ccc2ncnc(Nc3ccc(Oc4ccc(C)nc4)c(C)c3)c2c1 | 2.2 | 0 | 0 | 0.3
62 | Cc1cc(Nc2nc(N[C@@H](C)c3ncc(F)cn3)ncc2Cl)[nH]n1 [AZD1480] | 0 | 0 | 0 | 0
63 | CNC(=O)c1ccc(N2C(=S)N(c3ccc(C#N)c(C(F)(F)F)c3)C(=O)C2(C)C)cc1F [Enzalutamide] | 0 | 0 | 0 | 0
64 | CC(C)C[C@H](NC(=O)[C@H](Cc1ccccc1)NC(=O)c1cnccn1)B(O)O [Bortezomib] | 26.8 | 24.3 | 21.3 | 23.1
